Results: PubChem BioAssay (NCI)
Values joined by “and” are separate entries in the source; they are usually repeats but may differ in a detail not shown here. Identical values can stand only once.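 Test compounds were applied to cells in 96-well plates for 48 hours at 5 doses. GI50: concentration for 50% inhibition of growth. At the TGI there is no net growth.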

Assays:
Test in all cases: NCI tumour cell line growth inhibition, 48 h
UO-31 renal = system: UO-31 renal
MALME-3M melanoma = system: MALME-3M melanoma
OVCAR-5 ovarian = system: OVCAR-5 ovarian
HL-60(TB) leukemia = system: HL-60(TB) leukemia
786-0 renal = system: 786-0 renal
HCC-2998 colon = system: HCC-2998 colon
A498 renal = system: A498 renal

| Compound | GI50 (UO-31 renal) [µM] | TGI (UO-31 renal) | GI50 (MALME-3M melanoma) [µM] | TGI (MALME-3M melanoma) | GI50 (OVCAR-5 ovarian) [µM] | TGI (OVCAR-5 ovarian) | GI50 (HL-60(TB) leukemia) [µM] | TGI (HL-60(TB) leukemia) | GI50 (786-0 renal) [µM] | TGI (786-0 renal) | TGI (HCC-2998 colon) [µM] | GI50 (A498 renal) [µM] | TGI (A498 renal) [µM] | GI50 (HCC-2998 colon) [µM] |
| --- | --- | --- | --- | --- | --- | --- | --- | --- | --- | --- | --- | --- | --- | --- |
| O=[N+]([O-])c1ccc2c(N=Nc3c(O)ccc4ccccc34)c(O)cc(S(=O)(=O)O)c2c1 | 10.9 | 18.9 µM and 51.5 µM | 50.1 | 40.3 µM and > 100 µM | 70.3 | 50 µM and > 100 µM | 7.58 | 14.9 µM and 58.6 µM | 30.7 | 50 µM and > 100 µM | > 100 |  |  |  |
| Cn1cnc([N+](=O)[O-])c1Sc1ncnc2c1ncn2C1OC(CO)C(O)C1O (stereo unspecified) | 7.1 | > 100 µM | 46.3 | > 100 µM | 42 | > 100 µM | 22.6 | > 100 µM | 5.35 | > 100 µM | > 100 | 2.36 | > 100 | 5.02 |
| O=Cc1coc2ccccc2c1=O |  | 28.8 µM |  | 30.2 µM |  | 56.2 µM |  | 42.3 µM |  | 37.9 µM |  |  | > 100 |  |
| CCNCCNc1cc(-c2ccc(F)cc2)c(C#N)c2nc3ccccc3n12 | 1.82 | 3.75 µM | 1.77 | 3.45 µM | 4.45 | 15.9 µM | 2.09 | 4.36 µM | 1.77 | 3.45 µM | 14.2 | 4.79 | 17.2 | 3.83 |
| COc1ccc(/C=C(\C#N)c2cc3ccccc3n2C)cc1 | 0.924 | > 100 µM | 0.475 | > 100 µM | 0.852 | > 100 µM | 0.262 |  | 0.613 | > 100 µM | 5.98 | 0.071 | 0.675 | 0.865 |
| C#Cc1ccc(NC(=O)c2ccc(/C=C/C(=O)c3nccn3C)cc2)cc1 | 0.346 | 0.677 µM | 0.486 | 1.19 µM | 0.488 | 1.19 µM | 0.507 | 1.37 µM | 0.454 | 0.892 µM | 0.804 | 0.512 | 1.39 | 0.434 |
| CCNCC(O)c1ccc(N)c([N+](=O)[O-])c1 (stereo unspecified) |  | > 100 µM |  |  |  | > 100 µM |  | > 100 µM |  | > 100 µM |  |  | > 100 |  |
| Fc1ccc(-c2ncn(C3CCNCC3)c2-c2ccnc(Oc3cccc(F)c3)n2)cc1 | 6.77 | > 25 µM | 6.71 | 16.8 µM | 22.2 | > 25 µM | > 16.6 | > 25 µM | > 23.5 | > 25 µM | > 25 | > 25 | > 25 | 7.14 |
| C[Se]C(=O)CC1=C2C=C(F)C=CC2/C(=C\c2ccc(S(C)=O)cc2)C1C (stereo unspecified) | 0.036 | 0.179 µM | 0.156 | 0.4 µM | 0.114 | 1.49 µM | 0.416 | 2.41 µM | 0.207 | 1.71 µM | 6.79 | 0.0422 | 0.192 | 1.63 |
| O=[As](O)(O)c1ccc(Cc2ccc([As](=O)(O)O)cc2)cc1 |  | 2.63 µM |  | 2.62 µM |  | 4.65 µM |  | 3.98 µM |  | 1.29 µM | 3.68 |  | 3.96 |  |
| Cn1ccnc1C(=O)/C=C/c1ccc(C(=O)Nc2nc3ccccc3[nH]2)cc1 | 2.07 | > 25 µM | > 25 | > 25 µM | 5.6 | > 25 µM | 7.87 | > 25 µM | 4.44 | > 25 µM | > 25 | 4.71 | > 25 | 10.3 |
| N#Cc1nc(-c2ccccc2)oc1S(=O)(=O)N1CCOCC1 | 1.51 | 2.89 µM | 1.59 | 3.15 µM | 13.6 | 27.6 µM | 2.08 | 4.79 µM | 16 | 32 µM | 33.7 | 15.6 | 32 | 17.3 |
| CC1OC(O)C(O)C(O)C1O (stereo unspecified) |  | > 100 µM |  | > 100 µM |  | > 100 µM |  |  |  | > 100 µM |  |  | > 100 |  |
| FC(F)(F)c1ccc(-c2cnc(Br)nc2NC2CCCCCC2)cc1 | 33.9 | > 100 µM | > 100 | > 100 µM | > 100 | > 100 µM | 31.4 | > 100 µM | 91.2 | > 100 µM | > 100 | 40 | > 100 | > 100 |
| C[C@H]1[C@@H](OCC(CO[C@H]2O[C@@H]3O[C@@]4(C)CC[C@H]5[C@H](C)CC[C@@H]([C@H]2C)[C@@]35OO4)=NOCC(=O)O)OC2O[C@@]3(C)CC[C@H]4[C@H](C)CC[C@@H]1[C@@]24OO3 (stereo partly specified) | 0.0968 | 11.3 µM | < 0.0245 |  | 0.497 | 30.3 µM | < 0.01 | 13.3 µM | 0.112 | 23 µM | 20.8 | 1.76 | 19.6 | 1.28 |
| CCS/C(Nc1ccccc1)=C(\C#N)C(=O)Nc1ccc(OC)cc1 | 5.49 | > 100 µM | 47.3 | > 100 µM | 5.52 | > 100 µM | 2.87 | > 100 µM | 4.14 | > 100 µM | > 100 | 2.54 | 26.6 | 6.56 |
| COC(=O)C1(Cc2cccc(Cl)c2)CCCCCCN1C(=O)c1ccccc1 (stereo unspecified) |  | 29.3 µM |  | 25.3 µM |  | 44.7 µM |  | 34.3 µM |  | 26.3 µM | 27.5 |  | 29 |  |
| CC#CC(=O)N1CCC[C@H]1c1nc(-c2ccc(C(=O)Nc3ccccn3)cc2)c2c(N)nccn12 | 32.1 | > 100 µM | 36.2 | > 100 µM | > 100 | > 100 µM | > 100 | > 100 µM | > 100 | > 100 µM | > 100 | 26.4 | > 81.9 | > 100 |
| CC(=O)N1CC(F)(F)c2c(Sc3ncc(N4CCC5(CC4)COC[C@H]5N)nc3N)cccc21 | 2.96 | 25.8 µM | 15.5 | 31.5 µM | 15.4 | > 100 µM | 18.3 | 36.4 µM | 10.8 | 27.1 µM | 94.1 | 0.402 | 4.18 | 28.3 |
